Assay results as given in paper PMC6100386, “Preparation of Novel Homodimers Derived from Cytotoxic Isoquinolinequinones. A Twin Drug Approach” (Molecules : A Journal of Synthetic Chemistry and Natural …, 2018).
Where two headings read alike, the source gives them in different places.

Key:
[1] = system: MEF primary mouse embryonic fibroblasts; experiment: Cell growth inhibition assay (CyQuant direct cell proliferation), normal fibroblasts; format: cell-based; conditions: normal mouse embryo fibroblast cell line; 72 h drug exposure; average of six independent determinations; read-out: IC50 ± SEM, MEF
Method: (§1) The prepared homodimers 11–15 were evaluated for their in vitro cytotoxic activity using a conventional fluorescence assay (Cyquant direct cell proliferation assays), against primary mouse embryo fibroblast cell line MEF and two cancer cells lines: […] human breast adenocarcinoma and B16-F10 murine metastatic melanoma cells, in 72 h drug exposure assays. Monoamination products 6–10 were included in these preliminary assays. […] Etoposide and taxol, used clinically as anticancer agents, were taken as positive controls.
(§2) The cell lines used in this work included MDA-MB-231 human breast adenocarcinoma cells, B16-F10 mouse melanoma cells and MEF primary mouse embryonic fibroblasts. Cells were grown in DMEM high glucose medium (Mediatech, Manassas, VA, USA) supplemented with 10% (MDA-MB-231, and B16-F10) or 15% (MEF) heat-inactivated fetal bovine serum (HyClone laboratories, South Logan, UT, USA), 100 IU/mL penicillin and 100 μg/mL streptomycin, kept at 37 °C in a 5% CO2 humidified atmosphere. For the experiments, a total of 5.000 cells/well were seeded on a flat-bottomed 96-well plate with 200 μL final volume. Six hours after seeding, the cells were incubated with the medium containing the compounds at concentrations ranging from 0 up to 100 μM dissolved in DMSO (0.1% final concentration) for 72 h. The concentrations used to calculate the IC50 values were 100.0, 30.0, 10.0, 3.0, 1.0, 0.3, 0.1, 0.01 and 0.0 μM. Untreated cells (medium containing 0.1% DMSO) were used as controls. At the end of the incubation, cell viability was measured using CyQuant® direct cell proliferation assay kits (Life Technologies, Carlsbad, CA, USA) in accordance with the manufacturer’s instructions. Briefly, 100 μL of culture medium containing the compounds under evaluation was removed from each well and replaced by 2X detection reagent. The cells were incubated for 1 h and fluorescence emission was measured at 535 nm with excitation at 480 nm in a microplate reader (Infinite 200 PRO, Tecan, Männedorf, Switzerland). At least four independent experiments were performed for each concentration. Each result was transformed to percentage of controls and the IC50 values were obtained graphically from the dose–response curves. The IC50 value was obtained by adjusting the dose–response curve to a sigmoidal curve (variable slope) generated using GraphPad Prisma 6.0 software (La Jolla, CA, USA).

[2] = system: MDA-MB-231 human breast adenocarcinoma cells; experiment: Cell growth inhibition assay (CyQuant direct cell proliferation), breast adenocarcinoma; format: cell-based; conditions: human breast adenocarcinoma cell line, 72 h drug exposure, average of six independent determinations, read-out: IC50 ± SEM, MDA-MB 231
Method: as §1, §2

[3] = system: B16-F10 mouse melanoma cells; experiment: Cell growth inhibition assay (CyQuant direct cell proliferation), melanoma; format: cell-based; conditions: murine metastatic melanoma cell line, 72 h drug exposure, average of six independent determinations, read-out: IC50 ± SEM, B16-F10
Method: as §1, §2

[4] = system: MDA-MB-231 and B16-F10 tumor cells (versus MEF fibroblasts); experiment: Cell growth inhibition assay, mean over the two tumor cell lines and selectivity versus fibroblasts; format: cell-based; conditions: for SI (mean selectivity index): IC50 values for fibroblast cells / IC50 values for tumor cells (mean IC50); for IC50: mean of the IC50 values of the two tumor cell lines MDA-MB 231 and B16-F10, 72 h
Method: as §1, §2

Molecule | IC50 [1] | IC50 [2] | IC50 [3] | SI (mean selectivity index) [4] | IC50 [4] | IC50 ([2]; MDA-MB-231) | IC50 ([3]; Mus musculus, B16-F10) | IC50 ([4]; Fibroblast) | melting point
4-Acetyl-6-((4-(4-aminobenzyl)phenyl)amino)-3-methylisoquinoline-5,8-dione [Compound 10] | 5.14 ± 0.69 µM | 2.75 ± 0.42 µM | 2.17 ± 0.37 µM | 2.09 | 2.46 µM |  |  |  | 
COC(=O)c1c(C)nc(C)c2c1C(=O)C=C(Nc1ccc(Cc3ccc(N)cc3)cc1)C2=O [Compound 6] | 8.87 ± 0.88 µM |  |  | 2.06 |  | 2.46 ± 0.39 µM | 6.16 ± 0.88 µM | 4.31 µM | 149 to 150 °C
CC(=O)c1c(C)nc(C)c2c1C(=O)C=C(Nc1ccc(Cc3ccc(N)cc3)cc1)C2=O [Compound 7] | 15.4 ± 1.97 µM | 19.5 ± 1.46 µM | 7.14 ± 0.95 µM | 1.15 | 13.3 µM |  |  |  | 
COC(=O)c1c(C)ncc2c1C(=O)C=C(Nc1ccc(Cc3ccc(N)cc3)cc1)C2=O [Compound 8] | 5.54 ± 0.82 µM |  |  | 2.33 |  | 1.45 ± 0.31 µM | 3.31 ± 0.47 µM | 2.38 µM | 83 to 84 °C
CC(=O)c1c(C)ncc2c1C(=O)C=C(Nc1ccc(Cc3ccc(N)cc3)cc1)C2=O [Compound 9] | 2.79 ± 0.44 µM | 1.59 ± 0.37 µM | 0.76 ± 0.21 µM | 2.36 | 1.18 µM |  |  |  | 
COC(=O)c1c(C)nc(C)c2c1C(=O)C=C(Nc1ccc(Cc3ccc(NC4=CC(=O)c5c(C(=O)OC)c(C)nc(C)c5C4=O)cc3)cc1)C2=O [Compound 11] | > 100 µM |  |  | 0.30 |  | 66.9 ± 6.13 µM | > 100 µM |  | 199 to 200 °C
CC(=O)c1c(C)nc(C)c2c1C(=O)C=C(Nc1ccc(Cc3ccc(NC4=CC(=O)c5c(C(C)=O)c(C)nc(C)c5C4=O)cc3)cc1)C2=O [Compound 12, 7,7′-(4,4′-Methylenebis(4,1-phenylene)bis(azanediyl))bis(4-acetyl-1,3-dimethylisoquinoline-5,8-dione)] | 71.6 ± 6.39 µM | 55.6 ± 5.95 µM | 48.6 ± 4.42 µM | 1.37 | 52.1 µM |  |  |  | 
COC(=O)c1c(C)ncc2c1C(=O)C=C(Nc1ccc(Cc3ccc(NC4=CC(=O)c5c(cnc(C)c5C(=O)OC)C4=O)cc3)cc1)C2=O [Compound 13, Dimethyl-7,7′-(4,4′-methylenebis(4,1-phenylene)bis(azanediyl))bis(3-methyl-5,8-dioxo-5,8-dihydroisoquinoline-4-carboxylate)] | 79.8 ± 9.27 µM |  |  | 1.75 |  | 24.8 ± 4.78 µM | 66.3 ± 5.61 µM | 45.6 µM | 
CC(=O)c1c(C)ncc2c1C(=O)C=C(Nc1ccc(Cc3ccc(NC4=CC(=O)c5c(cnc(C)c5C(C)=O)C4=O)cc3)cc1)C2=O [Compound 14, 7,7′-(4,4′-Methylenebis(4,1-phenylene)bis(azanediyl))bis(4-acetyl-3-methylisoquinoline-5,8-dione)] | 32.8 ± 3.38 µM | 7.98 ± 1.43 µM | 5.83 ± 0.73 µM | 4.74 | 6.91 µM |  |  |  | 
COC(=O)c1c(C)ncc2c1C(=O)C=C(Nc1ccc(Cc3ccc(NC4=CC(=O)c5cnc(C)c(C(=O)OC)c5C4=O)cc3)cc1)C2=O [Compound 15, Methyl-7-(4-(4-(4-(methoxycarbonyl)-3-methyl-5,8-dioxo-5,8-dihydroisoquinolin-6-ylamino)benzyl)phenylamino)-3-methyl-5,8-dioxo-5,8-dihydroisoquinoline-4-carboxylate] | 2.58 ± 0.33 µM |  |  | 6.97 |  | 0.29 ± 0.05 µM | 0.45 ± 0.08 µM | 0.37 µM | 191 to 192 °C
COc1cc([C@@H]2c3cc4c(cc3[C@@H](O[C@@H]3O[C@@H]5CO[C@@H](C)O[C@H]5[C@H](O)[C@H]3O)[C@H]3COC(=O)[C@H]23)OCO4)cc(OC)c1O [Etoposide, reference compound] | 1.18 ± 0.4 µM |  |  | 0.32 |  | 5.34 ± 0.12 µM | 2 ± 0.44 µM | 3.67 µM | 
CC(=O)O[C@H]1C(=O)[C@@]2(C)[C@H]([C@H](OC(=O)c3ccccc3)[C@]3(O)C[C@H](OC(=O)[C@H](O)[C@@H](NC(=O)c4ccccc4)c4ccccc4)C(C)=C1C3(C)C)[C@]1(OC(C)=O)CO[C@@H]1C[C@@H]2O [Taxol, reference compound] | 0.32 ± 0.05 µM |  |  | 0.91 |  | 0.32 ± 0.07 µM | 0.38 ± 0.06 µM | 0.35 µM | 
